In PubChem BioAssay (NCI):
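Briefly, cells in 96-well plates were exposed to five compound concentrations for 48 h, and endpoints were estimated by linear interpolation. Abbreviation: GI50, concentration required for 50% inhibition of growth. TGI: concentration producing complete growth inhibition.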

Tests used:
Assay in all cases: NCI anticancer screen, dose series, 48 h
MDA-N = test system: MDA-N
MALME-3M melanoma = test system: MALME-3M melanoma
MDA-MB-435 = test system: MDA-MB-435
BT-549 breast = test system: BT-549 breast
HCT-15 colon = test system: HCT-15 colon
ACHN renal = test system: ACHN renal
CCRF-CEM leukemia = test system: CCRF-CEM leukemia
NCI-H460 lung = test system: NCI-H460 lung
HOP-92 NSCLC = test system: HOP-92 NSCLC
SNB-75 CNS = test system: SNB-75 CNS

SMILES | TGI (MDA-N) [µM] | TGI (MALME-3M melanoma) [µM] | TGI (MDA-MB-435) [µM] | TGI (BT-549 breast) [µM] | TGI (HCT-15 colon) [µM] | TGI (ACHN renal) [µM] | TGI (CCRF-CEM leukemia) [µM] | TGI (NCI-H460 lung) [µM] | TGI (HOP-92 NSCLC) [µM] | TGI (SNB-75 CNS) [µM] | GI50 (SNB-75 CNS) [µM] | GI50 (BT-549 breast) [µM] | GI50 (HCT-15 colon) [µM] | GI50 (ACHN renal) [µM] | GI50 (CCRF-CEM leukemia) [µM] | GI50 (NCI-H460 lung) [µM] | GI50 (HOP-92 NSCLC) [µM] | GI50 (MALME-3M melanoma) [µM] | GI50 (MDA-MB-435) [µM]
O=C(O)c1ccc(N/C(=C(/C(Cl)=C(Cl)Cl)[N+](=O)[O-])n2nnc3ccccc32)cc1 | > 100 | > 100 | > 100 | > 100 | > 100 | > 100 | > 100 | > 100 |  |  |  |  |  |  |  |  |  |  | 
O=[N+]([O-])C(C=C(n1nnc2ccccc21)n1nnc2ccccc21)=C(n1nnc2ccccc21)n1nnc2ccccc21 | > 100 | > 100 | > 100 | > 100 | > 100 | > 100 | > 100 | > 100 | > 100 |  |  |  |  |  |  |  |  |  | 
CC(=O)c1sc2[n+](c1C)C(=O)/C(=C\c1ccccc1Cl)S2 | 44 | 32.4 | 28.9 |  | 27.1 | 36 | 91 | 30.2 | > 100 | 65.9 |  |  |  |  |  |  |  |  | 
CC(C)(C)C1=C(Br)C(OC(=O)C(F)(F)F)(C(C)(C)C)OP1(=O)c1ccccc1 (stereo not given) | > 100 | > 100 | > 100 |  | > 100 | > 100 |  | > 100 | 92.5 | > 100 |  |  |  |  |  |  |  |  | 
C=CCNC(=S)/N=C/C(C(=O)Nc1ccccc1C)=C(\C)O | > 100 |  | > 100 | > 100 | > 100 | > 100 |  | > 100 |  |  |  |  |  |  |  |  |  |  | 
CN1CCC2(CC1)C(=NC1CCCCC1)NC(=O)N2c1ccccc1 |  | > 100 |  |  | > 100 | > 100 | > 100 | > 100 | > 100 | > 100 |  |  |  |  |  |  |  |  | 
COc1ccc(CNc2nc3ccccc3nc2C(=O)O)cc1 | > 100 |  | > 100 | > 100 | 60.9 |  | > 100 | > 100 | > 100 | > 100 |  |  |  |  |  |  |  |  | 
CC(C)c1ccc(/C=C2\CSCC3=C2N=C2SCC(=O)N2C3c2ccc(C(C)C)cc2)cc1 (stereo not given) | > 100 | > 100 | > 100 |  | > 100 | > 100 | > 100 | > 100 | > 100 | > 100 |  |  |  |  |  |  |  |  | 
COc1ccc(-c2n/c(=C\c3c(O)[nH]c4ccccc34)cc3c2=Nc2ccccc2-3)cc1 |  |  |  | 2.96 | 4.13 | 21.3 | 7.1 | 3.28 |  | 21.1 | 2.07 | 1.45 | 1.64 | 6.81 | 2.24 | 1.68 |  |  | 
NN/C(=N\S(=O)(=O)c1ccc(S(=O)(=O)c2ccccc2)s1)Nc1ccc(Cl)cc1 | 41.8 |  |  | > 100 | > 100 | > 100 |  | 65.7 | 73.3 |  |  |  |  |  |  |  |  |  | 
COC(=O)c1cc(/C=C\c2cc(OC)ccc2OC)ccc1OC | > 100 |  | 61.4 | > 100 | > 100 | > 100 | > 100 | > 100 |  |  |  |  |  |  |  |  |  |  | 
CC(C)C(NC(=O)C(Cc1ccccc1)NC(=O)[C@H]1CCC[C@H]1NC(=O)C(Cc1ccc(OC(C)(C)C)cc1)NC(=O)OC(C)(C)C)C(N)=O (stereo not given in full) | 35 |  | 34.3 |  | > 100 | > 100 | 39.4 | 38.8 | 48.9 | 29.2 |  |  |  |  |  |  |  |  | 
C=C(C)[C@@H]1CC[C@]2(CO)CC[C@]3(C)[C@H](CC[C@@H]4[C@@]5(C)CC[C@H](NCO)C(C)(C)[C@@H]5CC[C@]43C)[C@@H]12 |  | 1.53 | 1.78 | 1.53 |  | 1.65 | 3.21 | 1.79 | 1.6 | 1.4 | 0.71 | 0.792 |  | 0.943 | 1.02 | 0.918 | 0.783 | 0.792 | 0.896
COCCN1C(=O)C2c3[nH]c4ccccc4c3C3CCC(C(C)(C)C)CC3C2C1=O (stereo not given) | 30.1 |  | 36.9 | 35.3 | 36.3 | > 10 | 87.2 | 28 |  | 35.6 |  |  |  |  |  |  |  |  | 
O=C(Nc1ccc(Cl)cc1)c1cc(S(=O)(=O)Nc2n[nH]c(=O)n2-c2ccccc2)c(S)cc1Cl |  | > 100 | > 100 | > 100 | > 100 |  | > 100 | > 100 | > 100 |  |  |  |  |  |  |  |  |  | 
COc1ccc(-n2cnc3c(NC(Cc4ccccc4)C(=O)O)ncnc32)cc1 (stereo not given) | > 100 |  | > 100 | > 100 | > 100 | > 100 | > 100 | > 100 | > 100 | > 100 |  |  |  |  |  |  |  |  | 
COC(=O)C(NC(=O)OC(C)(C)C)P(=O)(OC)OC (stereo not given) | > 100 | > 100 | > 100 | > 100 | > 100 | > 100 |  |  | > 100 |  |  |  |  |  |  |  |  |  | 
Cc1cc(=O)oc2c(CNC(CC(C)C)C(=O)O)c(O)ccc12 (stereo not given) | > 100 | > 100 | > 100 |  | > 100 | > 100 |  | > 100 | > 100 | > 100 |  |  |  |  |  |  |  |  | 
CC(C)=NOC(=O)Nc1cccc2c1OCO2 |  | > 100 | > 100 |  | > 100 | > 100 |  | > 100 | > 100 | > 100 |  |  |  |  |  |  |  |  | 
C(=C/c1nc2ccccc2o1)/c1ccc2c(c1)OCO2 |  | > 95.9 |  |  | > 100 |  | > 100 | > 100 | 69.7 | > 63.8 |  |  |  |  |  |  |  |  | 
N#Cc1nc(/C=C/c2cccnc2)oc1N | > 100 | > 100 | > 100 |  | > 100 | > 100 | > 100 | > 100 | > 100 | > 100 |  |  |  |  |  |  |  |  | 
O=C1CC(c2ccccc2)S(=O)c2ccccc2N1 (stereo not given) |  | > 100 | > 100 | > 100 | > 100 | > 100 | > 100 | > 100 |  | > 100 |  |  |  |  |  |  |  |  | 
CC(=O)OCC1OC(n2c(-c3ccccc3)c(N=Nc3ccc(C)cc3)c(C)c(C#N)c2=S)C(OC(C)=O)C(OC(C)=O)C1OC(C)=O (stereo not given) | 74.9 |  | 36.6 | 19 | 86.6 | > 100 | > 100 | > 100 | 0.856 |  |  |  |  |  |  |  |  |  | 
